Measurements from patent US12378235B2, “HCK inhibitors for the treatment of fibrosis and cancer” (Icahn School of Medicine At Mount Sinai, priority 2019, dated 2025).
“And” between values parts separate entries of the source, which are not always exact repeats. Equal entries are not always repeated. Where two headings read alike, the source gives them in different places.

Tests used:
HCK = target: T1, HCK (Homo sapiens, UniProt P08631); assay: P32 radioactive kinase assay (Reaction Biology Corp), HCK activity inhibition; format: biochemical; conditions: for remaining activity at 1 µM: 1 μM compound, read-out: % Enzyme Activity (relative to DMSO controls) HCK (1 μM); for remaining activity at 50 µM: 50 μM compound, read-out: % Enzyme Activity (relative to DMSO controls) HCK (50 μM)
T1 construct: purchased Reaction Biology Corp
T1 sequence (P08631 whole entry): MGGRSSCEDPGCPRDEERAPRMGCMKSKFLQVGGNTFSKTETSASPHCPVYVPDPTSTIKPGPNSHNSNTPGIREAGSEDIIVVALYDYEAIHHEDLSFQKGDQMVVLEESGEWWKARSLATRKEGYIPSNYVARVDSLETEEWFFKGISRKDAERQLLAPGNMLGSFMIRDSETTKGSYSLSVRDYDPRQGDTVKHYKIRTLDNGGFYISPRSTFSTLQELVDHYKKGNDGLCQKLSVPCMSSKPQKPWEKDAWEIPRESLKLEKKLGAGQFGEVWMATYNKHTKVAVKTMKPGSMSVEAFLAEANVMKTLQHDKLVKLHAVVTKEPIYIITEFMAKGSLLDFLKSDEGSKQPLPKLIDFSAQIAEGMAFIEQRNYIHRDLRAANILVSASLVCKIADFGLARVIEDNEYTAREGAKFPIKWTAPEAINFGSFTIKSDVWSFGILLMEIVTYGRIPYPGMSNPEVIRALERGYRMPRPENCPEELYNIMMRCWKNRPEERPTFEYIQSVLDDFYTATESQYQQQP
Experimental: HCK activity inhibition efficiency for the inhibitors. Inhibiting efficiency was performed in Reaction Biology with Corp P32 radioactive kinase assay, comparing the compounds of the invention with dasatinib for HCK, Bcr-Abl and other binding kinases identified in reference. Most of the HCK inhibitors of the invention tested have IC50 of HCK activity at about 50 uM concentrations.
HCK inhibiting efficiency was performed in Reaction Biology with Corp P32 radioactive kinase assay. Briefly, HCK kinase was delivered into the substrate solution and gently mixed, then compounds in DMSO were added into the kinase reaction mixture by Acoustic technology (Echo550; Nano liter range), and incubated for 20 minutes at room temperature. 33P-ATP was delivered into the reaction mixture to initiate the reaction. The kinase reaction was incubated for 2 hours at room temperature. Reactions were spotted onto P81 ion exchange paper, and detected kinase activity was measured by filter-binding method.

HK2 cells [1] = assay: Anti-fibrosis effect: mRNA levels of fibrosis markers by RT-PCR in HK2 cells; format: cell-based; conditions: for mRNA levels of fibrosis markers: FIG. 3A and FIG. 3B
Experimental: Anti-fibrosis effect was investigated by fibrosis markers in mRNA level. […] The mRNA levels of Veminten, FN1 and A-Sma were not affected. HK2 cells were treated with HCK inhibitor Examples 4, 7, and 8 at 10 uM and 20 uM overnight and then stimulated with TGF-beta for 8 hours. mRNA-levels of profibrotic markers by RT-PCR (normalized to GAPDH) from mRNA isolated in the cells. Values are mean±SEM; *P=0.05, […], ***P<0.001 between means; one-way ANOVA with Bonferroni multiple comparison test (FIG. 2B). Finally, it was shown that Examples 7, 8, and 13 reduced the mRNA levels of fibrosis markers (FIG. 3A and FIG. 3B).

HK2 cells [2] = assay: CellTiter 96 AQueous One Solution Cell Proliferation Assay (MTS) in HK2 cells; format: cell-based; conditions: Homo sapiens, HK-2, 24 hours treatment, MTS (FIG. 1), read-out: concentration that inhibits 50% of HK2 cell proliferation
From the text: HCK inhibitors reduce cell proliferation. Excessive HCK activation is associated with several types of leukemia and enhances cell proliferation and survival by physical association with oncogenic fusion proteins, and with functional interactions with receptor tyrosine kinases. Elevated HCK activity is also observed in many solid malignancies, including breast and colon cancer, and correlates with decreased patient survival rates. HCK enhances the secretion of growth factors and pro-inflammatory cytokines from myeloid cells and promotes macrophage polarization towards a wound healing and tumor-promoting alternatively activated phenotype. Inhibition of HCK activity, therefore, should inhibit cancerous cell's proliferation. Compounds of the invention were measured for inhibition of cell proliferation with CellTiter 96® AQueous One Solution Cell Proliferation Assay (MTS) from Promega in HK2 cells. The compounds of the invention were diluted to serial concentrations. HK2 cells were cultured in 10% FBS and 1% P/S. The cells were treated with the compounds of the invention for 24 hours and then 20 μl/well of CellTiter 96® AQueous One Solution Reagent was added. Values were normalized to the percentages relative to DMSO controls. Values shown are mean±SEM.

SMAD = SMAD binding activity in HK2 cells; format: cell-based
From the text: Inhibition of HCK affects SMAD binding activity. Transforming growth factor-β(TGF-β) is the primary factor that drives fibrosis in most, if not all, forms of chronic kidney disease (CKD). TGF-β1 can induce renal fibrosis via activation of both canonical (Smad-based) and non-canonical (non-Smad-based) signalling pathways, which result in activation of myofibroblasts, excessive production of extracellular matrix (ECM) and inhibition of ECM degradation. The role of Smad proteins in the regulation of fibrosis is complex, with competing profibrotic and antifibrotic actions (including in the regulation of mesenchymal transitioning), and with complex interplay between TGF-β/Smads and other signalling pathways.

LDH cytotoxicity assay = format: cell-based; conditions: different dosages, up to very high dose of 50 uM
Experimental: LDH cytotoxicity assay for HCK inhibitors cytotoxicity. Toxicity refers to how poisonous or harmful a substance can be. In the context of pharmacology, drug toxicity occurs when a person has accumulated too much of a drug in his bloodstream, leading to adverse effects on the body. Drug toxicity may occur when the dose given is too high or the liver or kidneys are unable to remove the drug from the bloodstream, allowing it to accumulate in the body. Drug toxicity was measured with LDH cytotoxicity assay with different dosages of compounds of the invention.

[3] = HK2 cells treated with 5, 10, 20 uM (FIG. 2A)
[4] = second of two replicate columns

| Structure (SMILES) | IC50 (HCK) | mRNA levels of Veminten, FN1 and A-Sma (HK2 cells [1]; [3]) | mRNA levels of fibrosis markers collagen1, Snail, Mmp2 and Slug(Snail2) (HK2 cells [1]; [3]) | remaining activity at 1 µM (HCK; first of two replicate columns) [%] | remaining activity at 1 µM (HCK; [4]) [%] | remaining activity at 50 µM (HCK; first of two replicate columns) [%] | remaining activity at 50 µM (HCK; [4]) [%] | IC50 (HK2 cells [2]) [µM] | mRNA levels of fibrosis markers (HK2 cells [1]) | SMAD activity in HK2 cells (SMAD) | cytotoxicity (LDH assay) (LDH cytotoxicity assay) |
| --- | --- | --- | --- | --- | --- | --- | --- | --- | --- | --- | --- |
| COc1cc(-c2nnc3n2N=C(c2ccc(Br)cc2)CS3)cc(OC)c1OC [Example 4] | < 50 µM and 30 µM | not affected | affected | – | – | – | – | – | – | – | – |
| CCOC(=O)c1cnc(NC(=O)c2cc3cc(Cl)ccc3oc2=O)s1 [Example 7] | < 50 µM | – | – | 104 | 114 | 42.8 | 45 | 10 | reduced | – | – |
| CCOC(=O)c1cnc(NC(=O)c2cc3cc(Cl)ccc3[nH]c2=O)s1 [Example 8] | < 50 µM | – | – | 108 | 116 | 41.2 | 43.9 | 0.5 | reduced | reduce SMAD activity | – |
| CCOC(=O)c1cnc(NC(=O)c2ccc(B3OC(C)(C)C(C)(C)O3)cc2)s1 [Example 9] | – | – | – | 110 | 115 | 95 | 86.3 | – | – | – | – |
| CCOC(=O)c1cnc(NC(C#N)c2ccc(B3OC(C)(C)C(C)(C)O3)cc2)s1 (centres unmarked) [Example 10] | – | – | – | 104 | 99.4 | 89.1 | 96.5 | – | – | – | – |
| CCOC(=O)c1cnc(NC(C#N)c2ccc(B(O)O)cc2)s1 (centres unmarked) [Example 11] | – | – | – | 93.5 | 103 | 74.5 | 68.5 | – | – | – | – |
| CCOC(=O)c1cnc(NC(C#N)C2=Cc3cc(Cl)cc(Cl)c3OC2c2ccccc2)s1 (centres unmarked) [Example 12] | < 50 µM | – | – | 108 | 113 | 75.9 | 79.5 | 10 | – | reduce SMAD activity | some cytotoxicity at very high dose of 50 uM |
| CCOC(=O)c1cnc(NC(C#N)c2cc(-c3ccccc3)on2)s1 (centres unmarked) [Example 13] | < 50 µM | – | – | 109 | 113 | 68.4 | 65.5 | 10 | reduced | – | – |
| CCOC(=O)c1cnc(NC(=O)/C=C/c2ccccc2)s1 [Example 14] | – | – | – | 112 | 118 | 93.6 | 94.2 | – | – | – | – |
| CCOC(=O)c1cnc(NC(=O)C2=Cc3cc(Cl)cc(Cl)c3OC2c2ccccc2)s1 (centres unmarked) [Example 15] | < 50 µM | – | – | 86.6 | 83.4 | 6.63 | 5.97 | 0.5 | – | reduce SMAD activity | – |
| CCOC(=O)c1cnc(NC(=O)c2cc(OC)c(OC)c(OC)c2)s1 [Example 16] | – | – | – | 97.5 | 94 | 89.8 | 85 | – | – | – | – |
| CCOC(=O)c1cnc(NC(=O)c2cc(-c3ccccc3)on2)s1 [Example 17] | – | – | – | 114 | 116 | 112 | 117 | – | – | – | – |
| O=C(Nc1ncc(C(=O)O)s1)c1cc(-c2ccccc2)on1 [Example 18] | – | – | – | 107 | 95 | 106 | 113 | – | – | – | – |
| COc1cc(C(=O)Nc2ncc(C(=O)O)s2)cc(OC)c1OC [Example 19] | – | – | – | 99.2 | 100 | 94.1 | 90.7 | – | – | – | – |
| CCOC(=O)c1cnc(NC(=O)c2cc(Cl)cc(Cl)c2)s1 [Example 20] | – | – | – | 102 | 110 | 101 | 97.8 | – | – | – | – |
| O=C(Nc1ncc(C(=O)O)s1)c1cc(Cl)cc(Cl)c1 [Example 21] | – | – | – | 96.2 | 100 | 76.9 | 77.7 | – | – | – | – |
